Values quoted from earlier work in patent publication US20250268834A1, “IONIC LIQUID SALTS OF ACTIVE PHARMACEUTICAL INGREDIENTS” (GlaxoSmithKline Consumer Healthcare Holdings (US) LLC, priority 2021, published 2025).

Details: hydrolysis of amide to 4-aminophenol in liquids

pH with lowest hydrolysis levels of APAP: 5-6
Compound: CC(=O)Nc1ccc(O)cc1 [APAP, acetaminophen]
